Reference: US12313635B2, “Biomarker for thoracic aortic aneurysm” (THE REGENTS OF THE UNIVERSITY OF CALIFORNIA, priority 2018, dated 2025)

Legend:
H4B = assay: Aortic and plasma tetrahydrobiopterin (H4B) levels by HPLC; assay type: in vivo; settings: Fbn1^+/+ and Fbn1^C1039G/+ mice, oral FA vs chow diet
Method: (§1) FA treatment started at 4 weeks of age, and lasted through the entire study period of 8 weeks till harvest.
Aortic H4B and plasma H4B were measured using HPLC as previously described^19-22, 26, 27, 32, 33, 35-37. For the aorta, freshly isolated aortas were lysed in H4B lysis buffer (0.1 M phosphoric acid, 1 mM EDTA, 10 mM dl-dithiothreitol) and then centrifuged at 12,000 g for 3 min at 4° C. in the dark. For plasma, equal volumes of plasma and H4B lysis buffer were mixed and incubated on ice for 20 min in the dark and then centrifuged at 12,000 g for 3 min at 4° C. in the dark. The supernatant for both the aorta and plasma was subjected to oxidation in acidic (0.2 M trichloroacetic acid with 2.5% 12 and 10% KI) and alkalytic solutions (0.1 M NaOH with 0.9% 12 and 1.5% KI). After centrifugation, 10 μl of the supernatant was injected into a HPLC system equipped with a fluorescent detector (SHIMADZU AMERICA INC, Carlsbad, CA, USA). Excitation and emission wavelengths of 350 nm and 450 nm were used to detect H4B and its oxidized species. H4B concentration was calculated as previously described ^38, 39.

[1] = system: Ang II infused hph-1 mice and Ang II-infused apoE null mice; settings: cited from earlier work
DHFR [2] = assay: Western blotting of DHFR and eNOS expression in aortic endothelial cells; assay type: in vivo, mice; settings: aortic ECs of Fbn1^+/+ and Fbn1^C1039G/+ animals after FA treatment
Method: as §1
Western blotting was performed following standard protocols, using 12.5% SDS/PAGE gel and nitrocellulose membranes. Primary antibodies and their dilutions used were: DHFR (1:500, Novus Biologicals, H00001719-MO1), β-actin (1:3000, Sigma-Aldrich, A2066), eNOS (1:2000, BD Transduction Laboratories, 610297), TGFβ (1:500, Abcam, ab92486), NOX4 (1:300, Novus Biologicals, NB110-58849SS), and GTPCH 1 (1:500, Abbiotec, 250680).
Endothelial cells (ECs) were isolated from freshly prepared aortas, Western blot was used to detect DHFR expression in aortic ECs and HPLC was performed to assess DHFR activity in the isolated ECs and the denuded aortas of the Fbn1^+/+ and Fbn1^C1039G/+ animals. […] As shown in FIGS. 6D & 6E, DHFR activity was measured via HPLC from both the isolated ECs (FIG. 6D) and the denuded aortas (FIG. 6E).

[3] = system: NO bioavailability in aortic tissues; assay: Aortic NO bioavailability by electron spin resonance; assay type: in vivo; settings: aortas of Fbn1^C1039G/+ mice, age 8 and 12 weeks, oral FA
Method: FA treatment started at 4 weeks of age, and lasted through the entire study period of 8 weeks till harvest. Aortic N O production was also measured using ESR as previous described^19-22, 26-29, 32-34. Briefly, freshly isolated aortas were cut into 2 mm rings, and then incubated in freshly prepared NO specific spin trap Fe^2+(DETC)2 (0.5 mmol/L) in nitrogen bubbled, modified Krebs/HEPES buffer (as described above) at 37° C. for 60 min, in the presence of calcium ionophore A23187 (10 μmol/L). The aortic rings were then snap frozen in liquid nitrogen and loaded into a finger Dewarfor measurement with ESR. The instrument settings were as the following: Center field, 3440; Sweep width, 100 G: microwave frequency, 9.796 GHz; microwave power 13.26 mW; modulation amplitude, 9.82 G; 512 points of resolution; and receiver gain 356.

DHFR [4] = assay: DHFR activity by HPLC in isolated ECs and denuded aortas; assay type: in vivo; settings: Fbn1^C1039G/+ and Fbn1^+/+ mice, oral FA treatment
Method: as §1
DHFR activity was measured from isolated EC or denuded aorticring lysates as previously described^19, 22, 26. Briefly, lysates were incubated in a DHFR assay buffer (0.1 mol/L potassium phosphate dibasic, 1 mmol/L DTT, 0.5 mmol/L KCl, 1 mmol/L EDTA, and 20 mmol/L sodium ascorbate at pH 7.4) with NADPH (200 μmol/L) and the substrate dihydrofolate (50 μmol/L) at 37° C. for 20 min in the dark. The product of the reaction, tetrahydrofolate (THF), was measured using a HPLC system (SHIMADZU AMERICA INC, Carlsbad, CA, USA) with a C-18 column (Alltech, Deerfield, MA, USA) using water based mobile phase consisting of 7% acetonitrile and 5 mmol/L of potassium phosphate dibasic at pH 2.3. The signal was detected using a fluorescent detector at 295 nm excitation and 365 nm emission. The THF content was calculated against a standard curve prepared using THF solutions in assay buffer. Data are presented as nmol production of THF per min per mg protein.

eNOS = assay: Aortic superoxide production and eNOS uncoupling activity (L-NAME-sensitive superoxide) by electron spin resonance; assay type: in vivo, mice
Method: as §1
Aortic superoxide was measured by ESR as previously described^19-22, 26-33. Briefly, freshly isolated aortas were homogenized on icein lysis buffer containing 1:100 protease inhibitor cocktail, and centrifuged at 12,000 g for 15 min. Protein content of the supernatant was determined using a protein assay kit (Bio-Rad, #500-0113, #500-0114, #500-0115). […]
(§2) Four weeks old heterozygous Fbn1^C1039G/+ male animals were treated with TGFβ neutralizing antibody (anti-TGFβ, clone 1D11, Bio X Cell) or isotype (IgG, clone MOPC21, Bio X Cell) as previously shown^40. […] Aortic superoxide production and eNOS uncoupling activity were determined after 4 weeks injection as described above.
Firstly, ESR was used to measure the aortic superoxide production with or without L-NAME, an inhibitor for NOS. If eNOS is functional and coupled, its inhibition by L-NAME will increase the measured superoxide due to lack of scavenging effects of NO on superoxide. However, if eNOS is dysfunctional and uncoupled, it produces superoxide and the inhibition with L-NAME will reduce measured superoxide.

[5] = system: Fbn1^C1039G/+ Marfan Syndrome (MFS) mice; assay: Ultrasound imaging (echocardiography) of aortic root and abdominal aorta diameters; assay type: in vivo; settings: FA food (15 mg/kg/day from 4 weeks of age) vs chow diet
Excerpt: All experimental procedures were approved by the Institutional Animal Care and Usage committee at the University of California, Los Angeles (UCLA). Original heterozygous Fbn1^C1039G/+ male animals were purchased from Jackson Labs (Bar Harbor, ME, Strain B6.129-Fbn1^tm1Hcd/J, stock #012885). Heterozygous mice develop proximal aortic aneurysms, mitral valve thickenings, pulmonary alveolar septation defects, mild thoracic kyphosis, and skeletal myopathy, but 90% reportedly live to one year of age. This strain was backcrossed to C57BL/6 for more than nine generations by the donating laboratory^14. All pups were genotyped using PCR (FIG. 2) as per instructions by Jackson Labs.
as §1
Animals were anesthetized with isoflurane (˜[…]), and secured onto a temperature controlled table to maintain temperature at 37° C. Hair from the abdomen and the chest were removed with a hair removal cream (Nair). […] All images were recorded and saved for later offline aortic dimension analysis.
as §2

Nc1nc2ncc(CNc3ccc(C(=O)N[C@@H](CCC(=O)O)C(=O)O)cc3)nc2c(=O)[nH]1 [FA, folic acid]
H4B levels in plasma (H4B): substantially restored
H4B levels in the aortas (H4B): substantially restored
AAA formation ([1]; Ang II infused hph-1 mice and Ang II-infused apoE null mice, oral administration): completely or largely attenuated
plasma and tissue H4B levels ([1]; angiotensin II infused hph-1 and apoE null mice (AAA models)): restored
expression of DHFR (DHFR [2]): increased
NO bioavailability [3]: markedly improved
DHFR activity in the denuded aortas (DHFR [4]): substantially increased
DHFR activity in the isolated ECs (DHFR [4]): substantially increased
L-NAME-sensitive superoxide production (eNOS uncoupling activity) (eNOS; aortas of Fbn1^C1039G/+ mice at 8 and 12 week old, oral FA): completely attenuated
superoxide production (eNOS; aortas of Fbn1^C1039G/+ mice, FA diet): reduce superoxide production
size (diameter) of abdominal aortas [5]: substantially smaller
size (diameter) of aortic roots [5]: substantially smaller
